Measurements as given in PMC10376326, “Novel Acylselenourea Derivatives: Dual Molecules with Anticancer and Radical Scavenging Activity” (Antioxidants, 2023).

System: DU-145 cells
Assay: Protective effects against H2O2-induced oxidative stress in DU-145 cells (MTT)
Type: cell-based, human
Details: increase-fold of cell survival; compound 0.0003 mg/mL, 200 µM H2O2, DU-145
Protocol: Cells were treated with the selected compounds and then oxidative damage to DU-145 cells was induced using different concentrations of H2O2 (200, 250 and 300 µM), and cell viability was assessed by the MTT method. Briefly, 2.5 × 10^4 DU-145 cells per well were added in 96-well plates. After 24 h of incubation, DMSO, 1.I, 2.I, 5.I, 7.II, 10.II, and ascorbic acid were added to each well at two different concentrations (0.0015 mg/mL and 0.0003 mg/mL) and incubated for 1 h. After that, H2O2 was added at the concentrations of 200, 250, and 300 µM, and the cells were incubated for 12 h to induce cell damage. MTT assay was used to measure cell viability. For each treatment, the mean cell viability was calculated from three independent experiments. The DMSO-treated controls were assigned with a cell viability value of 100% (Vcontrol). The results are expressed as a cell growth inhibition % caused by H2O2 and the increased fold of cell survival, as follows: • Cells without compounds, only treated with H2O2: (2) % Cell growth inhibition=Acontrol - Asample/Acontrol × 100
• Cells treated with compounds and H2O2:
(3) % Cell growth inhibition=Asample (compound) - Asample (compound+H2O2)/Acontrol × 100
(4) Increase-fold of cell survival=% cell growth inhibition (H2O2)/% cell growth inhibition (compound+ H2O2)
The standard error of the mean (SEM) was calculated in at least three independent experiments performed in quadruplicates.

Row | Compound | Increase-fold
1 | O=C1O[C@H]([C@@H](O)CO)C(O)=C1O [Asc. Acid, ascorbic acid, reference compound] | 4.2 ± 0.4

Same assay, conditions: increase-fold of cell survival; compound 0.0003 mg/mL, 250 µM H2O2, DU-145

Row | Compound | Increase-fold
2 | O=C1O[C@H]([C@@H](O)CO)C(O)=C1O [Asc. Acid, ascorbic acid, reference compound] | 3.1 ± 0.7

Same assay, conditions: increase-fold of cell survival; compound 0.0003 mg/mL, 300 µM H2O2, DU-145

Row | Compound | Increase-fold
3 | O=C1O[C@H]([C@@H](O)CO)C(O)=C1O [Asc. Acid, ascorbic acid, reference compound] | 2.2 ± 0.1

Same assay, conditions: increase-fold of cell survival; compound 0.0015 mg/mL, 200 µM H2O2, DU-145

Row | Compound | Increase-fold
4 | O=C1O[C@H]([C@@H](O)CO)C(O)=C1O [Asc. Acid, ascorbic acid, reference compound] | 3.6 ± 0.3

Same assay, conditions: increase-fold of cell survival; compound 0.0015 mg/mL, 250 µM H2O2, DU-145

Row | Compound | Increase-fold
5 | O=C1O[C@H]([C@@H](O)CO)C(O)=C1O [Asc. Acid, ascorbic acid, reference compound] | 2.9 ± 0.7

Same assay, conditions: increase-fold of cell survival; compound 0.0015 mg/mL, 300 µM H2O2, DU-145

Row | Compound | Increase-fold
6 | O=C1O[C@H]([C@@H](O)CO)C(O)=C1O [Asc. Acid, ascorbic acid, reference compound] | 1.5 ± 0.2

System: not listed separately
Assay: DPPH radical scavenging assay
Type: biochemical
Details: 0.003 mg/mL, 0 min
Protocol: Different methods are available to quantify the antioxidant capacity of natural or novel molecules. Notable among these are the ABTS^•+ and DPPH^• methods, which measure the quenching efficiency in vitro for known concentrations of preformed radicals. In this work, the DPPH^• colorimetric assay was carried out. Measurements were recorded on a BioTeck PowerWave XS spectrophotometer (BioTeck Instruments, Winooski, VT, USA) and data were collected using KCJunior v.1.41. software (BioTeck Instruments, Winooski, VT, USA). Compounds with potent activity were selected to further determine their protective effect against ROS-induced cell death caused by H2O2.
DPPH colorimetric assay was performed to determine the in vitro radical scavenging activity of the acylselenourea derivatives. DPPH assay was performed as described by Svinyarov. For each acylselenourea, a stock solution of 1 mg/mL in dimethyl sulfoxide (DMSO) was made, and these solutions were used to prepare the different concentrations employed in the assay. The compounds were tested at two different concentrations (0.003 and 0.03 mg/mL). Intermediate solutions were prepared in methanol and a volume of 100 µL of each was added to each well of the plate. Then, 100 µL of DPPH^• (previously prepared at a concentration of 0.04 mg/mL in methanol and preserved in the dark) was added to the previous methanolic acylselenourea solutions. The discoloration of the purple radical to the yellow reduced form was followed at 517 nm at different time points (0, 5, 15, 30, 60, 90, and 120 min). Ascorbic acid and trolox were used as positive controls. All measurements were carried out in triplicate. Results are expressed as the percentage of the radicals scavenged, calculated using the following formula: (1) % DPPH radical scavenging=Acontrol - Asample/Acontrol × 100 where Acontrol refers to the absorbance of the negative control and Asample refers to the absorbance of the tested compounds. Results are expressed as percentage of DPPH radical scavenging ± SD.

Row | Compound | inhibition [%]
7 | O=C1O[C@H]([C@@H](O)CO)C(O)=C1O [Asc. Acid, ascorbic acid, reference compound] | 33.5 ± 0.5
8 | Cc1c(C)c2c(c(C)c1O)CCC(C)(C(=O)O)O2 (stereo not shown) [Trolox, trolox, reference compound] | 28.4 ± 1

Same assay, conditions: 0.003 mg/mL, 5 min

Row | Compound | inhibition [%]
9 | O=C1O[C@H]([C@@H](O)CO)C(O)=C1O [Asc. Acid, ascorbic acid, reference compound] | 33.6 ± 0.4
10 | Cc1c(C)c2c(c(C)c1O)CCC(C)(C(=O)O)O2 (stereo not shown) [Trolox, trolox, reference compound] | 29.2 ± 1

Same assay, conditions: 0.003 mg/mL, 15 min

Row | Compound | inhibition [%]
11 | O=C1O[C@H]([C@@H](O)CO)C(O)=C1O [Asc. Acid, ascorbic acid, reference compound] | 34.5 ± 1.6
12 | Cc1c(C)c2c(c(C)c1O)CCC(C)(C(=O)O)O2 (stereo not shown) [Trolox, trolox, reference compound] | 29.2 ± 0.9

Same assay, conditions: 0.003 mg/mL, 30 min

Row | Compound | inhibition [%]
13 | O=C1O[C@H]([C@@H](O)CO)C(O)=C1O [Asc. Acid, ascorbic acid, reference compound] | 34.1 ± 1.1
14 | Cc1c(C)c2c(c(C)c1O)CCC(C)(C(=O)O)O2 (stereo not shown) [Trolox, trolox, reference compound] | 29.2 ± 0.8

Same assay, conditions: 0.003 mg/mL, 60 min

Row | Compound | inhibition [%]
15 | O=C1O[C@H]([C@@H](O)CO)C(O)=C1O [Asc. Acid, ascorbic acid, reference compound] | 34 ± 0.9
16 | Cc1c(C)c2c(c(C)c1O)CCC(C)(C(=O)O)O2 (stereo not shown) [Trolox, trolox, reference compound] | 29.2 ± 0.8

Same assay, conditions: 0.003 mg/mL, 90 min

Row | Compound | inhibition [%]
17 | O=C1O[C@H]([C@@H](O)CO)C(O)=C1O [Asc. Acid, ascorbic acid, reference compound] | 34 ± 0.8
18 | Cc1c(C)c2c(c(C)c1O)CCC(C)(C(=O)O)O2 (stereo not shown) [Trolox, trolox, reference compound] | 29.2

Same assay, conditions: 0.003 mg/mL, 120 min

Row | Compound | inhibition [%]
19 | O=C1O[C@H]([C@@H](O)CO)C(O)=C1O [Asc. Acid, ascorbic acid, reference compound] | 34 ± 0.7
20 | Cc1c(C)c2c(c(C)c1O)CCC(C)(C(=O)O)O2 (stereo not shown) [Trolox, trolox, reference compound] | 29.1

Same assay, conditions: 0.03 mg/mL, 0 min

Row | Compound | inhibition [%]
21 | O=C1O[C@H]([C@@H](O)CO)C(O)=C1O [Asc. Acid, ascorbic acid, reference compound] | 96.4 ± 0.2
22 | Cc1c(C)c2c(c(C)c1O)CCC(C)(C(=O)O)O2 (stereo not shown) [Trolox, trolox, reference compound] | 90.8 ± 2.3

Same assay, conditions: 0.03 mg/mL, 5 min

Row | Compound | inhibition [%]
23 | O=C1O[C@H]([C@@H](O)CO)C(O)=C1O [Asc. Acid, ascorbic acid, reference compound] | 96.4 ± 0.1
24 | Cc1c(C)c2c(c(C)c1O)CCC(C)(C(=O)O)O2 (stereo not shown) [Trolox, trolox, reference compound] | 96.3 ± 0.1

Same assay, conditions: 0.03 mg/mL, 15 min

Row | Compound | inhibition [%]
25 | O=C1O[C@H]([C@@H](O)CO)C(O)=C1O [Asc. Acid, ascorbic acid, reference compound] | 96.9 ± 0.5
26 | Cc1c(C)c2c(c(C)c1O)CCC(C)(C(=O)O)O2 (stereo not shown) [Trolox, trolox, reference compound] | 96.3 ± 0.2

Same assay, conditions: 0.03 mg/mL, 30 min

Row | Compound | inhibition [%]
27 | O=C1O[C@H]([C@@H](O)CO)C(O)=C1O [Asc. Acid, ascorbic acid, reference compound] | 96.9 ± 0.5
28 | Cc1c(C)c2c(c(C)c1O)CCC(C)(C(=O)O)O2 (stereo not shown) [Trolox, trolox, reference compound] | 96.3 ± 0.2

Same assay, conditions: 0.03 mg/mL, 60 min

Row | Compound | inhibition [%]
29 | O=C1O[C@H]([C@@H](O)CO)C(O)=C1O [Asc. Acid, ascorbic acid, reference compound] | 96.6 ± 0.1
30 | Cc1c(C)c2c(c(C)c1O)CCC(C)(C(=O)O)O2 (stereo not shown) [Trolox, trolox, reference compound] | 96.2 ± 0.2

Same assay, conditions: 0.03 mg/mL, 90 min

Row | Compound | inhibition [%]
31 | O=C1O[C@H]([C@@H](O)CO)C(O)=C1O [Asc. Acid, ascorbic acid, reference compound] | 96.6 ± 0.1
32 | Cc1c(C)c2c(c(C)c1O)CCC(C)(C(=O)O)O2 (stereo not shown) [Trolox, trolox, reference compound] | 96.2 ± 0.2

Same assay, conditions: 0.03 mg/mL, 120 min

Row | Compound | inhibition [%]
33 | O=C1O[C@H]([C@@H](O)CO)C(O)=C1O [Asc. Acid, ascorbic acid, reference compound] | 96.6 ± 0.1
34 | Cc1c(C)c2c(c(C)c1O)CCC(C)(C(=O)O)O2 (stereo not shown) [Trolox, trolox, reference compound] | 96.2 ± 0.2
